# Experimental data: patent US11751592B2, “Sweetness and taste improvement of steviol glycoside or mogroside sweeteners” (The Coca-Cola Company, priority 2016, dated 2023)
# Key:
# panelists [1] = assay: Taste evaluation of sweetness against sucrose solutions, Example 2 (compound 1 with Mogroside V); type: in vivo, human; details: for sweetness, equally sweet to sucrose in acidic water: two panelists
# Protocol: (§1) Ingredients were added to acidic water or acidic water with compound 1 while stirring until solids were visibly dissolved and the sample was poured into a glass bottle and stored at 4° C.
# (§2) Taste tests were carried out with two panelists. Bottles were removed from the refrigerator and about 25 ml of beverage was poured into 4 oz-plastic cups. Panelists were given mineral water to rinse their mouth before tasting and between tasting different samples. Unsalted crackers were also given to panelists to eat followed by rinsing their mouth with mineral water before tasting the next sample. The sucrose solutions in Table 4, a sample of Mogroside V in acidic water and a sample of compound 1 and Mogroside V in acidic water were given to panelists. Panelists were asked to evaluate the sweetness of samples against 7%, 8%, 9%, and 10% sucrose solution and describe the difference of taste profile. Panelists were instructed to sip, evaluate the sweetness, and then spit the samples in cups provided for that purpose.
# panelists [2] = assay: Taste evaluation of sweetness against sucrose solutions, Example 3 (compound 1 with Rebaudioside A); type: in vivo, human; details: for sweetness, equally sweet to sucrose in acidic water: two panelists
# Protocol: as §1
# as §2, with “Rebaudioside A” for “Mogroside V”, “differences in the” for “difference of”, “profiles.” for “profile.”
# panelists [3] = assay: Taste evaluation of sweetness against sucrose solutions, Example 1 (compound 1 with Rebaudioside M); type: in vivo, human
# Protocol: as §1
# Taste tests were carried out with two panelists. Bottles were removed from the refrigerator and about 25 ml of beverage was poured into 4 oz-plastic cups. Panelists were given mineral water to rinse their mouth before tasting and between tasting different samples. Unsalted crackers were also given to panelists to eat followed by rinsing their mouth with mineral water before tasting the next sample.
# First, two panelists assessed the sweetness of 5 ppm of compound 1 in acidic water against 1.5% sucrose solution in acidic water.
# Sucrose solutions in Table 5, a sample of Rebaudioside M in acidic water and a sample of compound 1 and Rebaudioside M in acidic water were given to panelists. Panelists were asked to evaluate the sweetness of samples against 7%, 8%, 9%, and 10% sucrose solution and describe the differences in the taste profiles. Panelists were instructed to sip, evaluate the sweetness, and then spit the samples in cups provided for that purpose.
# [4] = Solubility in water during sample preparation; type: physicochemical; details: 2.5 mg in 500 g water, initially, before microwave, sonication and agitation
# Protocol: The sample was treated with Microwave (1 min), Sonication (15 min), and agitation (30 min) repeatedly until the solution became visually clear. The solution was cooled at room temperature and citric acid was added.
# [5] = 5 ppm compound 1 and 320 ppm Rebaudioside M in acidic water
# [6] = 5 ppm compound 1 and 400 ppm Mogroside V in acidic water, both panelists
# [7] = 5 ppm compound 1 and 400 ppm Rebaudioside A in acidic water
smiles,measurement,setting,value
"C[C@H](CC[C@@H](O[C@@H]1O[C@H](CO[C@@H]2O[C@H](CO)[C@@H](O)[C@H](O)[C@H]2O)[C@@H](O)[C@H](O)[C@H]1O[C@@H]1O[C@H](CO)[C@@H](O)[C@H](O)[C@H]1O)C(C)(C)O)[C@H]1CC[C@@]2(C)[C@@H]3CC=C4[C@@H](CC[C@H](O[C@@H]5O[C@H](CO[C@@H]6O[C@H](CO)[C@@H](O)[C@H](O)[C@H]6O)[C@@H](O)[C@H](O)[C@H]5O)C4(C)C)[C@]3(C)[C@H](O)C[C@]12C [Mogroside V, reference compound]","sweetness, equally sweet to sucrose in acidic water","panelists [1]; 400 ppm Mogroside V in acidic water, without compound 1",7 % sucrose
"C=C1C[C@@]23CC[C@H]4[C@@](C)(CCC[C@@]4(C)C(=O)O[C@@H]4O[C@H](CO)[C@@H](O)[C@H](O)[C@H]4O)[C@@H]2CC[C@]1(O[C@@H]1O[C@H](CO)[C@@H](O)[C@H](O[C@@H]2O[C@H](CO)[C@@H](O)[C@H](O)[C@H]2O)[C@H]1O[C@@H]1O[C@H](CO)[C@@H](O)[C@H](O)[C@H]1O)C3 [Rebaudioside A, reference compound]","sweetness, equally sweet to sucrose in acidic water","panelists [2]; 400 ppm Rebaudioside A in acidic water, without compound 1",7 % sucrose
"C=C1C[C@@]23CC[C@H]4[C@@](C)(CCC[C@@]4(C)C(=O)O[C@@H]4O[C@H](CO)[C@@H](O)[C@H](O[C@@H]5O[C@H](CO)[C@@H](O)[C@H](O)[C@H]5O)[C@H]4O[C@@H]4O[C@H](CO)[C@@H](O)[C@H](O)[C@H]4O)[C@@H]2CC[C@]1(O[C@@H]1O[C@H](CO)[C@@H](O)[C@H](O[C@@H]2O[C@H](CO)[C@@H](O)[C@H](O)[C@H]2O)[C@H]1O[C@@H]1O[C@H](CO)[C@@H](O)[C@H](O)[C@H]1O)C3 [Rebaudioside M, reference compound]","sweetness, equally sweet to sucrose in acidic water","panelists [3]; 320 ppm Rebaudioside M in acidic water, without compound 1, two panelists",8 % sucrose
"CC(C)CC(=O)N1CCC[C@H](COc2cccc3c2C(N)=NS(=O)(=O)N3)C1 [compound 1, (S)-1-(3-(((4-amino-2,2-dioxido-1H-benzo[c][1,2,6]thiadiazin-5-yl)oxy)methyl)piperidin-1-yl)-3-methylbutan-1-one]",sweetness against sucrose solution in acidic water,"panelists [3]; 5 ppm compound 1 alone in acidic water, two panelists",< 1.5 % sucrose
same,taste profile: bitterness,panelists [3]; [5],no bitterness
same,taste profile: mouthfeel,panelists [3]; [5],more mouthfeel
same,"sweetness, equally sweet to sucrose in acidic water","panelists [3]; 5 ppm compound 1 and 320 ppm Rebaudioside M in acidic water, two panelists",10 % sucrose
same,taste profile: mouthfeel,"panelists [1]; 5 ppm compound 1 and 400 ppm Mogroside V in acidic water, compared to the sample with just Mogroside V, one panelist",more mouthfeel
same,taste profile: bitterness,panelists [1]; [6],not bitter
same,taste profile: sweet linger,panelists [1]; [6],slight sweet linger
same,taste profile: sweetness onset,panelists [1]; [6],slower sweetness onset
same,"sweetness, equally sweet to sucrose in acidic water",panelists [1]; 5 ppm compound 1 and 400 ppm Mogroside V in acidic water,10 % sucrose
same,taste profile: bitterness,panelists [2]; [7],more bitter
same,"sweetness, equally sweet to sucrose in acidic water",panelists [2]; [7],7 % sucrose
same,sweetness enhancement,panelists [2]; 5 ppm compound 1 in acidic water containing 400 ppm Rebaudioside A,does not enhance the sweetness
same,solubility in water,[4],not completely soluble
